Data taken from patent US6454828B1 (Nulex, Inc., priority 2000, dated 2002).

Assays:
[1] = test system: Pioneer brand 34RO7 corn; test: Greenhouse evaluation study on use of ZDC as zinc fertilizer on corn; type: in vivo; conditions: for Dry Matter: corn harvested at 5-6 leaf stage, low-Zn Wymore silt loam soil; for Uptake P / Uptake Zn: calculated as dry matter times concentration; for Plant concentration P / Plant concentration Zn: dry plant material, ICP
Procedure: A greenhouse study was conducted to evaluate ZDC.
The soil source was a surface soil from a severely eroded Wymore silt loam soil (fine, smectitic, mesic Aquertic Argiudolls). Zinc deficiency symptoms on corn had been observed on the site during the 1999 growing season.
The soil was air-dried and sieved through a 1 cm coarse sieve. Five and one-half inch top diameter, plastic-lined pots were used. For each pot, 1600 g of soil was weighed into a plastic bag, and 1 g of monoammonium phosphate (11-52-0) was added to the plastic bags as a nitrogen and phosphorous source to ensure adequate growth. The MPA/soil was thoroughly mixed. About ⅔ of the soil from the thoroughly mixed MAP/soil was added to the plastic-lined pot, with roughly 2 inches of soil remaining to be added to the pot after starter fertilizer application and seed planting. A small furrow was made across the pot and a MAP/zinc starter mix added. An inch of soil was added and 4 seeds of Pioneer brand 34RO7 corn was planted directly over the fertilizer band, and the rest of the soil was added to the pot to cover the seed to one inch deep. Planting was on March 24. The fertilizer rate was calculated as a starter band rate based on the linear feet in an acre planted in 30 inch rows. A 5″ length of row was used in the calculations. […] Six replications were used. Pots were watered from the surface using distilled water. All pots received a blanket application of (NH4)2SO4 at the rate of 50#N/acre at the initial watering and twice more during the duration of the study.
Pots were thinned to three plants per pot approximately 1 week after emergence. Plants were harvested April 28 for dry matter yield by clipping about one-half inch above the soil surface. Samples were oven-dried at 65° C. for 48 hours and weighed.
The dry plant material was ground through a stainless steel small plant grinder to pass a 2 mm sieve. A quarter gram was weighed, wet-ashed with nitric-perchloric acid, and P and Zn concentration determined using an inductive couple plasma (ICP) instrument. Zinc and P uptake were calculated as dry matter times concentration.

[2] = Hydroscopicity check: granulated material stored overnight in the open; type: physicochemical; conditions: for Hydroscopicity of granulated material (in words): material melt-granulated at about 340-360° F.; for % Gain (weight, stored in the open): 24 hrs
Procedure: A sample of the material granulated in the previous run at about 350° F. was screened, and the material falling into a −8 mesh class was stored overnight in the open to check for hydroscopicity.

[3] = ambient temperatures; cited from earlier work

| Hydroscopicity of granulated material (in words) [2] | Hydroscopicity of granulated material (in words) ([2]; listed as Zn(NH3)2Cl2) | % Gain (weight, stored in the open) ([2]; −4+6 mesh granulated material) | Weight gained at 24 hrs. ([2]; −4+6 mesh granulated material, starting Wt. 5.0774) | % Gain (weight, stored in the open) ([2]; −8 mesh granulated material) | Weight gained at 24 hrs. ([2]; −8 mesh granulated material, starting Wt. 5.5600) | SMILES | Plant height, visual (10# Zn vs 1# Zn) ([1]; 10# Zn as ZDC compared with 1# Zn as ZDC, from shortly after emergence throughout the study) | Dry Matter ([1]; Zn rate 1 lb/ac as starter band) | Uptake P ([1]; Zn rate 1 lb/ac) | Uptake Zn ([1]; Zn rate 1 lb/ac) | Plant concentration P ([1]; Zn rate 1 lb/ac) | Plant concentration Zn ([1]; Zn rate 1 lb/ac) | Dry Matter ([1]; Zn rate 10 lb/ac as starter band) | Uptake P ([1]; Zn rate 10 lb/ac) | Uptake Zn ([1]; Zn rate 10 lb/ac) | Plant concentration P ([1]; Zn rate 10 lb/ac) | Plant concentration Zn ([1]; Zn rate 10 lb/ac) | Zinc content of solution (solubility) [3] |
| --- | --- | --- | --- | --- | --- | --- | --- | --- | --- | --- | --- | --- | --- | --- | --- | --- | --- | --- |
| very low hydroscopicity | did not appear to be hydroscopic | 0.18% | 0.0091 | 0.37% | 0.0206 | N.N.[Cl][Zn][Cl] [ZDC, Zinc diammine chloride] | slightly shorter | 7.88 g/pot | 28.4 mg/pot | .21 μg/pot | .36% | 27 ppm | 7.44 g/pot | 24.6 mg/pot | .35 μg/pot | .33% | 47 ppm |  |
|  |  |  |  |  |  | [Cl-].[Cl-].[Zn+2] [zinc chloride] |  |  |  |  |  |  |  |  |  |  |  | 30 % zinc |
